Results taken from ChEMBL document CHEMBL1201862, “PubChem BioAssay data set” (2004).
Calls of active or inactive are those of the source.

Assays:
[1] = target: T1, Short transient receptor potential channel 4 (Mus musculus, UniProt Q9QUQ5); assay: mouse TRPC4 channel inhibitors, dose response, cell-based, HEK293 TRPC4/mu-opioid, Fluo-4 calcium (AID 434942); type: functional;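 also: potency of inhibitors blocking the TRPC4 calcium response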
T1 sequence (Q9QUQ5 whole entry): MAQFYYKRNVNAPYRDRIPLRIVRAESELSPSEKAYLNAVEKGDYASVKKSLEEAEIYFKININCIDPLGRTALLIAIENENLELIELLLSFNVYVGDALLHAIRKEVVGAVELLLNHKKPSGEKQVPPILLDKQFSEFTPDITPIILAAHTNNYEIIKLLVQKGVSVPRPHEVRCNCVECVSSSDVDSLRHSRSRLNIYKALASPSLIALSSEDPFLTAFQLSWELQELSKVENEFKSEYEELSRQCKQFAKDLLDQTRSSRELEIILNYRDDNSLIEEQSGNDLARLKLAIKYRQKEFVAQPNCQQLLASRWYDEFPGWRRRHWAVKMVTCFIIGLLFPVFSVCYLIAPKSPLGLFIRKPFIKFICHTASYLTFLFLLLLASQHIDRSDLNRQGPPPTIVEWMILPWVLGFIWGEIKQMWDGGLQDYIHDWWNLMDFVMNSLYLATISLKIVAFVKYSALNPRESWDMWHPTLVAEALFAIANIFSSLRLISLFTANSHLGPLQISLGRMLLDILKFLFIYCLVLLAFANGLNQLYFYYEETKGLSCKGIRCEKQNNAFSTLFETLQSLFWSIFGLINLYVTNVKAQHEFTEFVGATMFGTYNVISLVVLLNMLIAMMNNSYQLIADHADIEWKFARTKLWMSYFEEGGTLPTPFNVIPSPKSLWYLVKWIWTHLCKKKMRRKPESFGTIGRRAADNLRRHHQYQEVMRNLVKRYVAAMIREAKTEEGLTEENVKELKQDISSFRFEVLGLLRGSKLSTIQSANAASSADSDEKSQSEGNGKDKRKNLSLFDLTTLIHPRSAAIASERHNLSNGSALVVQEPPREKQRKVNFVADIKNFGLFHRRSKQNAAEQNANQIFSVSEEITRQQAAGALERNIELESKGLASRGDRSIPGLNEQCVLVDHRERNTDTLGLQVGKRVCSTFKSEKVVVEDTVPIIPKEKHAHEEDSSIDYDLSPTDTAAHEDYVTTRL

HEK293 [2] = assay: cells; type: functional, cell-based; details: Homo sapiens
HEK293 [3] = assay: cells; type: functional, cell-based; details: Homo sapiens; remark: listed apart in the source
HEK293 [4] = assay: NOD1 signaling inhibitors, primary screen, cell-based, luminescence, uHTS (AID 1578); type: functional; details: Homo sapiens
HEK293 [5] = assay: cells; type: functional, cell-based; details: Homo sapiens; remark: listed apart in the source
HEK293 [6] = assay: NOD2 signaling inhibitors in MDP-stimulated cells, cell-based, uHTS, luminescence (AID 2001); type: functional; details: Homo sapiens
[7] = target: Nucleotide-binding oligomerization domain-containing protein 2 (Homo sapiens, UniProt Q9HC29); assay: NOD2 signaling inhibitors, cell-based, luminescence, uHTS, HEK293 (AID 1566); type: functional
Cytochrome P450 3A4 = Cytochrome P450 3A4 (Homo sapiens, UniProt P08684); details: Potency;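 also: confirmatory qHTS run detecting inhibitors and substrates of CYP3A4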
NADPH oxidase 1 = target: T2, NADPH oxidase 1 (Homo sapiens, UniProt Q9Y5S8); type: functional, cell-based;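 also: Cell-based assay with luminescence read-out, IC50 derived from inhibitor dose-response curves; intracellular ROS from endogenous NOX1 in intact HT29 colon cancer cells; potency of inhibitors that lower the ROS luminescence signal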
T2 sequence (Q9Y5S8 whole entry): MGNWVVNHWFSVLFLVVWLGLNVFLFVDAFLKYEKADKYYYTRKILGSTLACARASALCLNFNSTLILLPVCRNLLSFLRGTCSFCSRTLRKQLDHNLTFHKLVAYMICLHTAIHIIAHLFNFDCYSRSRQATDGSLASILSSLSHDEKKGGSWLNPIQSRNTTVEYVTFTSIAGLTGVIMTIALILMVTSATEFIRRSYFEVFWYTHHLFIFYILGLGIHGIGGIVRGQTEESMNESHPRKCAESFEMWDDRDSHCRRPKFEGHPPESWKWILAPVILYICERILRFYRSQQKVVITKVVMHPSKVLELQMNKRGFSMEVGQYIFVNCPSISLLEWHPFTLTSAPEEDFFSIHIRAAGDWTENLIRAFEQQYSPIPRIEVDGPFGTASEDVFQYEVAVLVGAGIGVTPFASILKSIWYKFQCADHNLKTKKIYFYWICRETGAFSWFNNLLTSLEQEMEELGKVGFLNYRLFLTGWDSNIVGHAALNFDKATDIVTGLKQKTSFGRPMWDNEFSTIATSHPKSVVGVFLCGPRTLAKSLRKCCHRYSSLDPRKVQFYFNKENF

Cytochrome P450 2C9 = Cytochrome P450 2C9 (Homo sapiens, UniProt P11712)
Cytochrome P450 2C19 = Cytochrome P450 2C19 (Homo sapiens, UniProt P33261); assay: Cytochrome panel assay with activity outcomes. Panel member name: p450-cyp2c19 Compounds with AC50 equal or less than 10 uM are considered active; type: functional; details: read-out: AC50
Vero = assay: cells; type: functional; details: Chlorocebus sabaeus
[8] = target: T3, High affinity choline transporter 1 (Homo sapiens, UniProt Q9GZV3); assay: CHT inhibitors, dose response, cell-based, 5-point CRC, membrane potential dye (AID 504840); type: functional
T3 sequence (Q9GZV3 whole entry): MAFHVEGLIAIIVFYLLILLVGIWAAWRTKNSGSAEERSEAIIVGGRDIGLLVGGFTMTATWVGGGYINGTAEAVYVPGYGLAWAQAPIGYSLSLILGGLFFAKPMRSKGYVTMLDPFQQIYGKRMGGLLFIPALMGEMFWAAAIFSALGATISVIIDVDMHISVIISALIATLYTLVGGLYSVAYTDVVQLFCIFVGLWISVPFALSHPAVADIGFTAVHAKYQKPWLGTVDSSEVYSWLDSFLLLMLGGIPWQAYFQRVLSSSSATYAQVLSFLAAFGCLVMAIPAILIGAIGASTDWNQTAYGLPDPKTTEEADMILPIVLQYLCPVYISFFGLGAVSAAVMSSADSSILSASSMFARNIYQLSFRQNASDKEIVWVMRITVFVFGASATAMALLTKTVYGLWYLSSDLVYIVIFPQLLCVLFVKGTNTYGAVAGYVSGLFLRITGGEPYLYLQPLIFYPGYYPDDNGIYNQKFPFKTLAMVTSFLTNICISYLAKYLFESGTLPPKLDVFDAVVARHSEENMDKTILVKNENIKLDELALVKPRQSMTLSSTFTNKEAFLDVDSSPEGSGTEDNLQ

[9] = target: T1, Short transient receptor potential channel 4; assay: mouse TRPC4 channel activators, dose response, cell-based, HEK293 TRPC4/mu-opioid, Fluo-4 calcium (AID 434937); type: functional
[10] = Luminescence Cell-Based Dose Retest to Confirm Inhibitors of Cancer Stem Cells. [Related pubchem assays (depositor defined):AID2717, AID2721]; type: functional; details: Homo sapiens
[11] = target: T4, Rac GTPase-activating protein 1 (Homo sapiens, UniProt Q9H0H5); assay: MgcRacGAP GTPase-activating activity inhibitors, confirmation, biochemical, ADP Hunter fluorescence, primary and confirmatory (AID 624330); type: functional
T4 sequence (Q9H0H5 whole entry): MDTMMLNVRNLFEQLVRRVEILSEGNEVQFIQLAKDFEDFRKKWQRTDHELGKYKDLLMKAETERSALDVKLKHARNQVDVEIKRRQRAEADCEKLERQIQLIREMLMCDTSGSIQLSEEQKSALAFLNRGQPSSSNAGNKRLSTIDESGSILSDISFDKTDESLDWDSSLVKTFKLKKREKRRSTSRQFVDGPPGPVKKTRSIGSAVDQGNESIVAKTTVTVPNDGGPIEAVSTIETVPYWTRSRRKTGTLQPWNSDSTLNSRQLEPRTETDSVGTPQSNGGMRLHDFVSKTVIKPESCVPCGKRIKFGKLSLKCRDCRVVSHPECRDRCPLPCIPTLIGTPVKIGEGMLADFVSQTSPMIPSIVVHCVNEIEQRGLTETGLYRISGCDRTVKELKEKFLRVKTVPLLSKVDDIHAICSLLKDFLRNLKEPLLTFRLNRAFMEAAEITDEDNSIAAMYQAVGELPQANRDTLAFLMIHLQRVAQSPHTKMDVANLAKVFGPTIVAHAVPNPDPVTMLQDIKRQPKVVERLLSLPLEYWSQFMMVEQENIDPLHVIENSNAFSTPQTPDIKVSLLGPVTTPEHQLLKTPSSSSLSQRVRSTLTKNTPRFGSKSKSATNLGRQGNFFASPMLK

Cytochrome P450 3A4, sequence (P08684 whole entry): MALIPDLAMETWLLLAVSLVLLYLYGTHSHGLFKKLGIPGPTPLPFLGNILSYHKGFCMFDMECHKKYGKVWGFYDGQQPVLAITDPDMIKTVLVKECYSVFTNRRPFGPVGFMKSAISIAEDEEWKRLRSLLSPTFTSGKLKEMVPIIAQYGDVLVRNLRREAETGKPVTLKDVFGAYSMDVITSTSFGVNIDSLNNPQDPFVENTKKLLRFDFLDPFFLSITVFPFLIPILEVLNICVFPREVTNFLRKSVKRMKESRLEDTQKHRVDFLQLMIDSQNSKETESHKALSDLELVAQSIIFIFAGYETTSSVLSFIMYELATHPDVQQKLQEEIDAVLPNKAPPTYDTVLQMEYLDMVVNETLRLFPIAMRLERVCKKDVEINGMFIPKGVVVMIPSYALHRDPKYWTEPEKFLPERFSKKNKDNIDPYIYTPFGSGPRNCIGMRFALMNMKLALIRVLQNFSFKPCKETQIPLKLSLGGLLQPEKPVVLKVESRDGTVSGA
Cytochrome P450 2C9, sequence (P11712 whole entry): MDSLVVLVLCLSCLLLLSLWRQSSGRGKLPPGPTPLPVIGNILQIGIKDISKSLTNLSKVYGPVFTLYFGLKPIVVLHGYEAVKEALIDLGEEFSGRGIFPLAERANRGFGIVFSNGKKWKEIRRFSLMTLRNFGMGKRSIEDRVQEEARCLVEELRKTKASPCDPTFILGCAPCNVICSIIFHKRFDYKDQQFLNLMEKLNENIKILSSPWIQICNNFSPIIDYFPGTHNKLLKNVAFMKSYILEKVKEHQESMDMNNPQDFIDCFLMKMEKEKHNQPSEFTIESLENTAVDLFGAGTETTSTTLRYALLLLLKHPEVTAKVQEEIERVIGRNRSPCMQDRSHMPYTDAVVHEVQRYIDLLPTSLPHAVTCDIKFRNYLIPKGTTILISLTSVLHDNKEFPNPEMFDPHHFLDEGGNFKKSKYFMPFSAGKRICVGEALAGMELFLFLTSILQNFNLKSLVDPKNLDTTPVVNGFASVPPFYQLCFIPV
Cytochrome P450 2C19, sequence (P33261 whole entry): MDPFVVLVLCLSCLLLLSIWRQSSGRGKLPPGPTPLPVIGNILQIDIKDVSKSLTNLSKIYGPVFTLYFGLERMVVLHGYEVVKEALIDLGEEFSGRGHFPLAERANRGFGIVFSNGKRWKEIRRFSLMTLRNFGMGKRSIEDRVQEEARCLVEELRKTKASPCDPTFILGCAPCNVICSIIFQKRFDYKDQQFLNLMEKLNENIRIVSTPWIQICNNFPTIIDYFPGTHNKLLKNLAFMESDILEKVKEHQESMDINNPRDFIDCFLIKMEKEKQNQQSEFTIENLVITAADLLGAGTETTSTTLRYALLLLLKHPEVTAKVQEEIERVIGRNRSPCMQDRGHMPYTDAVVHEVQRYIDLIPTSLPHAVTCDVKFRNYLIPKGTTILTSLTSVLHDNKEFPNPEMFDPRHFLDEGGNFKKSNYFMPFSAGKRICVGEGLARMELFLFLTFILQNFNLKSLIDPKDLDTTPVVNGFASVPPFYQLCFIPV
Nucleotide-binding oligomerization domain-containing protein 2, sequence (Q9HC29 whole entry, the tested form may be a part): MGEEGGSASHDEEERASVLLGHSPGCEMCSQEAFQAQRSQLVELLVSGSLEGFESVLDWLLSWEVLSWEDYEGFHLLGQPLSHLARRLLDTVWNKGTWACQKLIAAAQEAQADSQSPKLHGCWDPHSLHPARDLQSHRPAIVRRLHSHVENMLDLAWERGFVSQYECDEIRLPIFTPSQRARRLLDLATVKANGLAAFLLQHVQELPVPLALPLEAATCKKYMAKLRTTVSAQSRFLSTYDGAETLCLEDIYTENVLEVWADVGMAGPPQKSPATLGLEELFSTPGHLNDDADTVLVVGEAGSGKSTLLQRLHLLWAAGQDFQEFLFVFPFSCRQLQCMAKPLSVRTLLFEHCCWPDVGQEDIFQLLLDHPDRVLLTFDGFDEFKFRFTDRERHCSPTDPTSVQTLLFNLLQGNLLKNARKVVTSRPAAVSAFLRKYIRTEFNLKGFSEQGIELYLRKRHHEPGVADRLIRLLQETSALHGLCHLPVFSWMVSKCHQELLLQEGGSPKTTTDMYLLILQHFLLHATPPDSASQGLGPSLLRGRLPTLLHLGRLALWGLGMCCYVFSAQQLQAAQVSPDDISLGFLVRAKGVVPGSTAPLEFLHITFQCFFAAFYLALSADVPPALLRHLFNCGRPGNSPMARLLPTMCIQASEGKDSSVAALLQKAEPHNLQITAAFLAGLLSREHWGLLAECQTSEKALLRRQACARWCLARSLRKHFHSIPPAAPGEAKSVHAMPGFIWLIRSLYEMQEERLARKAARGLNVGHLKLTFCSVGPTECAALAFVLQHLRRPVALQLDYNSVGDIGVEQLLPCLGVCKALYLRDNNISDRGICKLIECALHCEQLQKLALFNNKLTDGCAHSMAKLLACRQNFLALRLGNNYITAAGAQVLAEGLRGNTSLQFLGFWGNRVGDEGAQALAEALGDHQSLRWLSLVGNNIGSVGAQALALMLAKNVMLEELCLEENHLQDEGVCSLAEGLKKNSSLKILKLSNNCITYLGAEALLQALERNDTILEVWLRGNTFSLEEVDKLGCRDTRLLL

For `COc1ccc(F)cc1C(=O)C1CCCN(Cc2ccc3c(c2)OCCO3)C1` (configuration not stated), the EC50 [1] was 1.33 µM (active).
For `CCc1ccc(OCC(=O)Nc2ccc(-c3cc4ccccc4oc3=O)c(OC)c2)cc1`, the IC50 (HEK293 [2]) was 11.3 µM (active), the IC50 (HEK293 [3]) was > 20 µM (inactive) and the EC50 (HEK293 [4]) was 2.18 µM (active). The IC50 (HEK293 [5]) was 2.79 µM (active), the IC50 (HEK293 [6]) was 2.94 µM (active) and the EC50 [7] was 5.25 µM (active).
For `CNC(=O)[C@@]1(C)C=C[C@@H](Cc2ccccc2)N1C(=O)OC`, the AC50 (Cytochrome P450 3A4) was 3.16 µM (inconclusive).
In the case of `CSc1ccc(NC(=O)Nc2ccc(N(C)C)cc2)cc1`, the IC50 (NADPH oxidase 1) is reported as 0.0777 µM (active).
For `CCN(CC)c1ccc(NC(=O)Nc2ccc(OCc3ccccc3)cc2)cc1`, the IC50 (NADPH oxidase 1) was 0.235 µM (active).
For `CCC(=O)CC(NC(=O)OC)c1ccccc1` (configuration not stated), the AC50 (Cytochrome P450 3A4) was 6.31 µM (inconclusive).
With `Cc1ccc(OP(=O)(Oc2ccc(C)cc2)N2C=Cc3ccccc3[C@H]2C#N)cc1` the AC50 (Cytochrome P450 2C9) was “inconclusive”.
For `Cc1cc(C)cc(NC(S)=NC2CC3CCC(C2)N3Cc2ccco2)c1` (configuration not stated), the AC50 (Cytochrome P450 2C9) was “inconclusive” and the AC50 (Cytochrome P450 2C19) was 35.5 µM (inconclusive).
In the case of `N#Cc1cccc(-c2nc3cnc(N4CCOCC4)nc3n(Cc3ccc(F)cc3)c2=O)c1`, the AC50 (Cytochrome P450 2C9) is reported as “inconclusive”.
With `Cc1cc(OCc2cc(C(=O)NCCN3CCCCC3CO)no2)cc(C)c1Cl` (configuration not stated) the CC50 (Vero) was > 25 µM (active), the EC50 [1] was 2.99 µM (active) and the IC50 [8] was 18.2 µM (active).
For `Fc1ccc(NC(=S)NNC(=S)Nc2ccccc2)cc1`, the IC50 (NADPH oxidase 1) was 0.218 µM (active).
In the case of `O=C(Oc1ccc([N+](=O)[O-])cc1)c1sc2ccccc2c1Cl`, the IC50 (NADPH oxidase 1) is reported as > 17 µM (not active).
With `CN(C)C(CNC(=O)Cc1cccc(C(F)(F)F)c1)c1ccccc1` (configuration not stated) the EC50 [1] was 0.0093 µM (active) and the EC50 [9] was 0.0947 µM (active).
In the case of `COc1cc(/C=C/C(=O)c2ccc3c(c2)OCO3)cc(Cl)c1O`, the AC50 [10] is reported as 6.39 µM (active), the IC50 [11] is reported as 93.6 µM (active) and the EC50 [9] is reported as 5.96 µM (active).
For `CCOC(=O)C1(O)Oc2cc(OC)cc(OC)c2C(=O)C1c1ccccc1` (configuration not stated) [2-ETHOXYCARBONYL-2-HYDROXY-5,7-DIMETHOXYISOFLAVANONE], the AC50 (Cytochrome P450 3A4) was 20 µM (inconclusive).
With `Nc1ccc2ccccc2c1` [NAPHTHYLAMINE] the AC50 (Cytochrome P450 3A4) was 12.6 µM (inconclusive).
